# Test results published in PMC11219860, “A chemogenetic approach for dopamine imaging with tunable sensitivity” (Nature Communications, 2024).
# What was measured:
# dLight1.3b = assay: Unpredicted reward or footshock with PFC dLight1.3b photometry; assay type: in vivo, mouse
# Method: After habituating mice to the experimental chamber (4 consecutive days for 5–10 min) mice were food restricted to 90% ad libitum body weight. […] During learning sessions, the delay between CS and US was increased every training day from 2 to 10 seconds until mice became expert. […] After i.p. injection, mice were placed into an operant chamber. 3–4 electric footshocks (0.4 mA for 1 second) were delivered 10 to 25 min post vehicle or DETQ with variable intervals (randomly chosen from a uniform distribution between 240 and 360 seconds or between 120 and 240 seconds) without predictive cues. Mouse freezing behavior was monitored with a video camera (C310 Logitech,10 frames per second) positioned above the recording chamber and controlled by the Synapse software. […] Freezing was defined as the complete cessation of all movement for at least 1 s during a 25-min testing duration.
# For long-term recordings during optogenetic stimulation or chemogenetic inhibition linear fit was calculated across the entire recording or across the vehicle epoch; for event-related experiments fit was performed on fluorescent data obtained in the −60 to +60 s around opto events or −5 to −1 s around behavioral events. […] DA event-related responses were quantified by computing the value at the transient’s peak value and the AUC in the 0 to 10 s or 0 to 60 s period post-event onset. […] The maximal peak value of Veh-normalized ΔF/F0 after opto-onset was plotted over time and the plateau of maximal response was determined by averaging peak opto responses 5, 10, 15 and 20 min post-DETQ. We then looked at trials between 5 and 65 min post-DETQ to determine which trials belonged to a ‘temporal window for stable imaging’. […] Average ΔF/F0 in the 10–20 min post vehicle injection, 0–10 min post DETQ/Veh and 2–12 min post J60/Veh were computed. […] For weekly DETQ injection, AUC was calculated in the relevant drug epoch (Veh, DETQ) and normalized against the duration of that epoch (Veh: 10 min, DETQ: 50 min). […] AUC of the baseline was calculated within the +5 to +40 minutes time window post ip injection. For detection of spontaneous DA peaks the calculated ΔF/F0 was smoothed with a 50 datapoints (410 milliseconds) moving window, and the built-in Matlab function findpeaks was applied, with the threshold for minimal peak prominence set to 0.5% ΔF/F0.
# AlloLite-ctr = assay: In vivo photometry of AlloLite-ctr in NAc; parameters: species or system mouse; conditions: DETQ 10 mg/kg
# Method: Fiber photometry combined with optogenetics was conducted using a RZ10X LUX-I/O Processor with integrated LEDs (Tucker-Davis Technologies) combined with a filter/mirror minicube set (FMC6_IE(400-410)_E1(467-497)_F1(507-554)_E2(566-586)_F2(600-680)_S) (Doric Lenses). […] Low-autofluorescence patch cords (400 µm/0.57 NA, Doric) were attached to the optic fibers (400 µm/0.66 NA, Doric) on the mouse’s head to collect fluorescence emissions. Signals were filtered through 500–540 nm GFP emission filters coupled to a photodetector on the RZ10X. […] Data were sampled at 1017.3 Hz. […] For optogenetic stimulation, a 635 nm LED was passed through the 580–680 nm minicube F2 port and reached the mouse through the same unique optic fiber; the LED was driven at 1 to 3 mW. To determine the ‘temporal window for stable imaging’ in the PFC using dLight1.3b recordings, DAT^IREScre mice expressing ChrimsonR in VTA DA axons and dLight1.3b in the PFC were injected i.p. with vehicle at 0 min, followed by DETQ (10 mg/kg) 25 min later. […] DA release was measured with fiber photometry. […] After each injection, NAc DA axons were optically (opto) activated across 3 trials (2 s, 20 Hz, 20-ms pulses) every 5 min and DA released measured with fiber photometry. […] After each injection, NAc DA axons were optically (opto) inhibited (10 s, continuous trials) every 3 min (8 trials/condition) and DA released measured with fiber photometry. […] DA release was measured with fiber photometry.
# For long-term recordings during optogenetic stimulation or chemogenetic inhibition linear fit was calculated across the entire recording or across the vehicle epoch; for event-related experiments fit was performed on fluorescent data obtained in the −60 to +60 s around opto events or −5 to −1 s around behavioral events. […] DA event-related responses were quantified by computing the value at the transient’s peak value and the AUC in the 0 to 10 s or 0 to 60 s period post-event onset. […]
smiles,measurement,setting,value
"C[C@H]1c2cccc(C(C)(C)O)c2C[C@H](CO)N1C(=O)Cc1c(Cl)cccc1Cl [DETQ, 2-(2,6-dichlorophenyl)-1-((1S,3R)-3-(hydroxymethyl)-5-(2-hydroxypropan-2-yl)-1-methyl-3,4-dihydroisoquinolin-2(1H)-yl)ethan-1-one]",increase in the average peak amplitude vs. Vehicle,"dLight1.3b; PFC, unpredicted reward",2 fold
same,single trials with detected response to reward,"dLight1.3b; PFC, unpredicted reward",90.91 ± 1.40%
same,amplitude of DA signals during unexpected footshocks,"dLight1.3b; PFC, vs interleaved vehicle days",significantly larger
same,response to footshocks (freezing),"dLight1.3b; mouse, in vivo",not affected
same,licking duration,dLight1.3b; unpredicted reward,remained unchanged
same,increase in baseline signal after DETQ administration,AlloLite-ctr,completely absent
same,opto-evoked DA peaks of AlloLite-ctr upon DETQ,AlloLite-ctr,retained the same amplitude and kinetics
